Data taken from EP0311724A1, “Anxiolytic-R-N-(1-azabicyclo[2.2.2]oct-3-yl) benzamides and thiobenzamides” (SYNTHELABO, priority 1987, dated 1989).
Where a name gives a salt, the structure may show the parent alone.

Columns and labels:
mouse = assay: Exploratory behaviour of the mouse in a two-compartment box (method of Crawley and Goodwin); format: in vivo; set-up: key: +: significant increase vs. control; -: significant decrease vs. control; ns: no significant change vs. control; conditions: dose 0.1-10 mg/kg ip, change vs. control
Protocol: (§1) The anxiolytic activity was determined by the method of Costall et al details of which are to be found in the pharmacology examples later in this specification. In brief, the method involves seeing whether the compound under test reduced the natural anxiety of mice in brightly-lit areas. Anxiolytic activity was also assessed by the method of Crawley and Goodwin (Pharm. Biochem. Behavior (1980), 13,167-170).
Compounds of the invention have been studied in the laboratory animal to evaluate their anxiolytic activity. As a typical compound of the invention, R(+)-4-Amino-N-(3-quinuclidinyl)-5-chloro-2-methoxy benzamide dihydrochloride (R(+)-4-Amino-N-(1-azabicyclo[2.2.2]oct-3-yl)-5-chloro-2-methoxybenzamide dihydrochloride), the compound of Example 14, was investigated for its anxiolytic activity, which was compared with that of the racemate (unresolved product of Example 2) and the corresponding enantiomer of absolute configuration S (product of Comparison Example 1).
The method used in this example was that described by Crawley and Goodwin (Pharm. Biochem. Behavior (1980) 13, 167-170), where aspects of behaviour of the mouse are compared in a lit zone and a dark zone of a two-compartment box.

[1] = test system: Naive male albino BKW mice; assay: Anti-anxiety test (light/dark two-compartment box, method of Costall et al); format: in vivo; conditions: 40 min pretreatment, n = 5
Protocol: as §1
Naive male albino BKW mice, 25-30g, were used in all experiments. 10 mice were normally housed in each cage and given free access to food and water. The mice were kept on a 12h light and 12h dark cycle with lights off at 8.00am and on at 8.00pm.
The apparatus used for the detection of changes in anxiety consisted of an open topped box (45 x 27 x 27cm high) one third painted black and illuminated under a dim red light (1 x 60W) and partitioned from the remainder of the box which was painted white and brightly illuminated with a 100W light source located 17cm above the box. Access between these areas was enabled by means of a 7.5 x 7.5cm opening located at floor level in the centre of the partition. The floor area was lined into 9cm squares. The test was conducted between 13.00 and 18.00h in a quiet, darkened room illuminated with red light only. Animals were thus taken in a dark container from a dark holding room to the dark testing room.
Animals that had received drug or vehicle injections were placed individually into the centre of the white area and their behaviour observed over a 5 min period by remote video recording.
Animals were used in treatment groups of 5 and vehicle controls were run on each day of testing. Results were anlysed using Single-Factor Analysis of Variance followed by Dunnett's procedure for comparing all treatments with control.
Compounds of Example 14 and Comparison Example 1 were dissolved in minimum HCI made up to volume with distilled water. Doses were expressed as the base and were administered as a 40 min pretreatment in a volume of 1 mIi100g body weight. Administration was by the subcutaneous route.

[2] = Black Section, 0.1 mg/kg subcutaneous
[3] = Black Section, 1.0 mg/kg subcutaneous
[4] = Black Section, 10.0 mg/kg subcutaneous
[5] = White Section, 0.1 mg/kg subcutaneous
[6] = White Section, 1.0 mg/kg subcutaneous
[7] = White Section, 10.0 mg/kg subcutaneous

Compound | Movement activity (mouse; Dark zone) | Straightenings (mouse; Dark zone) | Movement activity (mouse; Light zone) | Straightenings (mouse; Light zone) | Crossings/5min [1, 2] | Rearings/5 min [1, 2] | Crossings/5min [1, 3] | Rearings/5 min [1, 3] | Crossings/5min [1, 4] | Rearings/5 min [1, 4] | Crossings/5min [1, 5] | Rearings/5 min [1, 5] | Crossings/5min [1, 6] | Rearings/5 min [1, 6] | Crossings/5min [1, 7] | Rearings/5 min [1, 7]
COc1cc(N)c(Cl)cc1C(=O)NC1CN2CCC1CC2 (racemic) [Compound of Example 2] | - | - | + | + |  |  |  |  |  |  |  |  |  |  |  | 
COc1cc(N)c(Cl)cc1C(=O)N[C@@H]1CN2CCC1CC2 [Comparison Example 1, S(-)-4-Amino-N-(3-quinuclidinyl)-5-chloro-2-methoxybenzamide hydrochloride] | ns | ns | ns | ns | 39.4±3.0 | 35.2±3.1 | 37.6±3.8 | 38.1±3.2 | 50.8±5.2 | 48.3±4.1 | 23.2±2.3 | 23.0±2.1 | 26.8±2.7 | 21.5±2.0 | 24.7±2.1 | 24.0±1.9
COc1cc(N)c(Cl)cc1C(=O)N[C@H]1CN2CCC1CC2 [Example 14, R(+)-4-Amino-N-(3-quinuclidinyl)-5-chloro-2-methoxybenzamide hydrochloride] | - | - | + | + | 14.6±1.5^+++ | 13.6±1.1^+++ | 13.6±1.2^+++ | 13.0±1.4^+++ | 17.6±1.4^+++ | 14.7±1.2^+++ | 52.9±5.0 | 64.8±6.0 | 87.4±7.6 | 82.4±7.4 | 73.7±7.2 | 76.2±7.6
